# Measured values reported in US20250230193A1, “CYCLIC COMPOUND HAVING SELECTIVE KRAS INHIBITORY EFFECT ON HRAS AND NRAS” (CHUGAI SEIYAKU KABUSHIKI KAISHA, priority 2022, published 2025).
# *1 amine or outer side, *2 acyl side, *3 side chain or, on linkers, in order; H or OH if unused. Where a SMILES comes first, the peptide text is derived from it. Bridges are numbered along the chain shown (N, C = ends). [ ]: non-standard residue; d: D form. The star is where a group is joined. hPhe(3-Cl-4-CF3) = N[C@@H](CCc1ccc(C(F)(F)F)c(Cl)c1)C(=O)O; NEtPhe(4-CF3) = CCN[C@@H](Cc1ccc(C(F)(F)F)cc1)C(=O)O; NEtPhe(4-Me) = CCN[C@@H](Cc1ccc(C)cc1)C(=O)O; NMeAbu(4,4,4-F3) = CN[C@@H](CC(F)(F)F)C(=O)O; NMePhe(4-Me) = CN[C@@H](Cc1ccc(C)cc1)C(=O)O; X30 = CCN([C@H](C(=O)[*:2])C1CCCC1)[*:1]; NMeGly(cPent) = CN[C@H](C(=O)O)C1CCCC1; NMeD = CN[C@@H](CC(=O)O)C(=O)O; NMeL = CN[C@@H](CC(C)C)C(=O)O; NMeS = CN[C@@H](CO)C(=O)O; Morpholide = C1CN(*)CCO1; NMeA = CN[C@@H](C)C(=O)O; Ac5c = NC1(C(=O)O)CCCC1; NBuGly = CCCCNCC(=O)O; NPrGly = CCCNCC(=O)O; NEtG = CCNCC(=O)O; Sar = CNCC(=O)O
# Columns and labels:
# [1] = target: GDP-bound NRAS wild-type protein (Homo sapiens, UniProt P01111); test: Binding to NRAS by surface plasmon resonance (SPR), Single Cycle Kinetics; conditions: KD ratio NRAS/KRAS, SPR
# GDP-bound NRAS wild-type protein, sequence (P01111 whole entry): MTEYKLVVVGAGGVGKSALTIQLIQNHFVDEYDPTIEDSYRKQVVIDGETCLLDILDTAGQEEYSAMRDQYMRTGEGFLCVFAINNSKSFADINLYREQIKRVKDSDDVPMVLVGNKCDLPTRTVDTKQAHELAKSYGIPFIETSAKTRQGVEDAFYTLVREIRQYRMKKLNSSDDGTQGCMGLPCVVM
# [2] = target: GDP-bound HRAS wild-type protein (Homo sapiens, UniProt P01112); test: Binding to HRAS by surface plasmon resonance (SPR), Single Cycle Kinetics; conditions: KD ratio HRAS/KRAS, SPR
# GDP-bound HRAS wild-type protein, sequence (P01112 whole entry): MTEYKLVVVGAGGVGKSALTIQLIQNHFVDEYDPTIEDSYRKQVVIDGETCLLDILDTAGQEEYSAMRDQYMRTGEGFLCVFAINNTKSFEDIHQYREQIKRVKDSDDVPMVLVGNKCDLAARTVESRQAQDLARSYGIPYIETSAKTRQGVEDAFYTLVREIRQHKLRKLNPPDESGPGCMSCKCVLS
SMILES,NRAS/KRAS (ratio of KD for GDP-bound NRAS wild-type to KD for KRAS) [1],HRAS/KRAS (ratio of KD for GDP-bound HRAS wild-type to KD for KRAS) [2]
CCCN1CC(=O)N(C)[C@@H](Cc2ccc(C)cc2)C(=O)N(C)CC(=O)N[C@@H](CCc2ccc(C(F)(F)F)c(Cl)c2)C(=O)N2CCC[C@H]2C(=O)NC2(CCCC2)C(=O)N(C)[C@@H](C2CCCC2)C(=O)N(C)[C@H](C(=O)N2CCOCC2)CC(=O)N(C)[C@@H](CC(C)C)C(=O)N[C@@H]([C@@H](C)CC)C(=O)N(C)CC1=O [PP0020] ([NMeL]I[Sar][NPrGly][NMePhe(4-Me)][Sar][hPhe(3-Cl-4-CF3)]P[Ac5c][NMeGly(cPent)][NMeD]-Morpholide; lactam N-11),C (A compound having a KD ratio of 0.1 or more and less than 3 is denoted as C),C (A compound having a KD ratio of 0.1 or more and less than 3 is denoted as C)
CCCCN1CC(=O)N(C)[C@@H](Cc2ccc(C)cc2)C(=O)N(C)CC(=O)N[C@@H](CCc2ccc(C(F)(F)F)c(Cl)c2)C(=O)N2CCC[C@H]2C(=O)NC2(CCCC2)C(=O)N(C)[C@@H](C2CCCC2)C(=O)N(C)[C@H](C(=O)N2CCOCC2)CC(=O)N(C)[C@@H](CC(C)C)C(=O)N[C@@H]([C@@H](C)CC)C(=O)N(C)CC1=O [PP0021] ([NMeL]I[Sar][NBuGly][NMePhe(4-Me)][Sar][hPhe(3-Cl-4-CF3)]P[Ac5c][NMeGly(cPent)][NMeD]-Morpholide; lactam N-11),C (A compound having a KD ratio of 0.1 or more and less than 3 is denoted as C),C (A compound having a KD ratio of 0.1 or more and less than 3 is denoted as C)
CC[C@H](C)[C@@H]1NC(=O)[C@H](CC(C)C)N(C)C(=O)C[C@@H](C(=O)N2CCOCC2)N(C)C(=O)[C@H](C2CCCC2)N(C)C(=O)C2(CCCC2)NC(=O)[C@@H]2CCCN2C(=O)[C@H](CCc2ccc(C(F)(F)F)c(Cl)c2)NC(=O)CN(C)C(=O)[C@H](Cc2ccc(C)cc2)N(CC)C(=O)CN(C)C(=O)CN(C)C1=O [PP0022] ([NMeL]I[Sar][Sar][NEtPhe(4-Me)][Sar][hPhe(3-Cl-4-CF3)]P[Ac5c][NMeGly(cPent)][NMeD]-Morpholide; lactam N-11),B (a compound having 3 or more and less than 10 is denoted as B),C (A compound having a KD ratio of 0.1 or more and less than 3 is denoted as C)
CC[C@H](C)[C@@H]1NC(=O)[C@H](CC(C)C)N(C)C(=O)C[C@@H](C(=O)N2CCOCC2)N(C)C(=O)[C@H](C2CCCC2)N(C)C(=O)C2(CCCC2)NC(=O)[C@@H]2CCCN2C(=O)[C@H](CCc2ccc(C(F)(F)F)c(Cl)c2)NC(=O)CN(C)C(=O)[C@H](Cc2ccc(C(F)(F)F)cc2)N(CC)C(=O)CN(C)C(=O)CN(C)C1=O [PP0023] ([NMeL]I[Sar][Sar][NEtPhe(4-CF3)][Sar][hPhe(3-Cl-4-CF3)]P[Ac5c][NMeGly(cPent)][NMeD]-Morpholide; lactam N-11),B (a compound having 3 or more and less than 10 is denoted as B),C (A compound having a KD ratio of 0.1 or more and less than 3 is denoted as C)
CC[C@H](C)[C@@H]1NC(=O)[C@H](CC(C)C)N(C)C(=O)C[C@@H](C(=O)N2CCOCC2)N(C)C(=O)[C@H](C2CCCC2)N(C)C(=O)C2(CCCC2)NC(=O)[C@@H]2CCCN2C(=O)[C@H](CCc2ccc(C(F)(F)F)c(Cl)c2)NC(=O)CN(C)C(=O)[C@H](C2CCCC2)N(CC)C(=O)CN(C)C(=O)CN(C)C1=O [PP0024] ([NMeL]I[Sar][Sar][X30][Sar][hPhe(3-Cl-4-CF3)]P[Ac5c][NMeGly(cPent)][NMeD]-Morpholide; lactam N-11),B (a compound having 3 or more and less than 10 is denoted as B),C (A compound having a KD ratio of 0.1 or more and less than 3 is denoted as C)
CC[C@H](C)[C@@H]1NC(=O)[C@H](CC(C)C)N(C)C(=O)C[C@@H](C(=O)N2CCOCC2)N(C)C(=O)[C@H](C2CCCC2)N(C)C(=O)C2(CCCC2)NC(=O)[C@@H]2CCCN2C(=O)[C@H](CCc2ccc(C(F)(F)F)c(Cl)c2)NC(=O)CN(CC)C(=O)[C@H](Cc2ccc(C)cc2)N(C)C(=O)CN(C)C(=O)CN(C)C1=O [PP0025] ([NMeL]I[Sar][Sar][NMePhe(4-Me)][NEtG][hPhe(3-Cl-4-CF3)]P[Ac5c][NMeGly(cPent)][NMeD]-Morpholide; lactam N-11),C (A compound having a KD ratio of 0.1 or more and less than 3 is denoted as C),C (A compound having a KD ratio of 0.1 or more and less than 3 is denoted as C)
CC[C@H](C)[C@@H]1NC(=O)[C@H](CC(C)C)N(C)C(=O)C[C@@H](C(=O)N2CCOCC2)N(C)C(=O)[C@H](C2CCCC2)N(C)C(=O)C2(CCCC2)NC(=O)[C@@H]2CCCN2C(=O)[C@H](CCc2ccc(C(F)(F)F)c(Cl)c2)NC(=O)CN(C)C(=O)[C@H](Cc2ccc(C)cc2)N(CC)C(=O)CN(CC)C(=O)CN(C)C1=O [PP0027] ([NMeL]I[Sar][NEtG][NEtPhe(4-Me)][Sar][hPhe(3-Cl-4-CF3)]P[Ac5c][NMeGly(cPent)][NMeD]-Morpholide; lactam N-11),C (A compound having a KD ratio of 0.1 or more and less than 3 is denoted as C),C (A compound having a KD ratio of 0.1 or more and less than 3 is denoted as C)
CC[C@H](C)[C@@H]1NC(=O)[C@H](CC(C)C)N(C)C(=O)C[C@@H](C(=O)N2CCOCC2)N(C)C(=O)[C@H](C2CCCC2)N(C)C(=O)C2(CCCC2)NC(=O)[C@@H]2CCCN2C(=O)[C@H](CCc2ccc(C(F)(F)F)c(Cl)c2)NC(=O)CN(CC)C(=O)[C@H](Cc2ccc(C)cc2)N(CC)C(=O)CN(C)C(=O)CN(C)C1=O [PP0028] ([NMeL]I[Sar][Sar][NEtPhe(4-Me)][NEtG][hPhe(3-Cl-4-CF3)]P[Ac5c][NMeGly(cPent)][NMeD]-Morpholide; lactam N-11),C (A compound having a KD ratio of 0.1 or more and less than 3 is denoted as C),C (A compound having a KD ratio of 0.1 or more and less than 3 is denoted as C)
CC[C@H](C)[C@@H]1NC(=O)[C@H](CC(C)C)N(C)C(=O)C[C@@H](C(=O)N2CCOCC2)N(C)C(=O)[C@H](C2CCCC2)N(C)C(=O)C2(CCCC2)NC(=O)[C@@H]2CCCN2C(=O)[C@H](CCc2ccc(C(F)(F)F)c(Cl)c2)NC(=O)CN(CC)C(=O)[C@H](Cc2ccc(C)cc2)N(C)C(=O)CN(CC)C(=O)CN(C)C1=O [PP0029] ([NMeL]I[Sar][NEtG][NMePhe(4-Me)][NEtG][hPhe(3-Cl-4-CF3)]P[Ac5c][NMeGly(cPent)][NMeD]-Morpholide; lactam N-11),C (A compound having a KD ratio of 0.1 or more and less than 3 is denoted as C),C (A compound having a KD ratio of 0.1 or more and less than 3 is denoted as C)
CC[C@H](C)[C@@H]1NC(=O)[C@H](CC(C)C)N(C)C(=O)C[C@@H](C(=O)N2CCOCC2)N(C)C(=O)[C@H](C2CCCC2)N(C)C(=O)C2(CCCC2)NC(=O)[C@@H]2CCCN2C(=O)[C@H](CCc2ccc(C(F)(F)F)c(Cl)c2)NC(=O)CN(CC)C(=O)[C@H](Cc2ccc(C)cc2)N(CC)C(=O)CN(CC)C(=O)CN(C)C1=O [PP0030] ([NMeL]I[Sar][NEtG][NEtPhe(4-Me)][NEtG][hPhe(3-Cl-4-CF3)]P[Ac5c][NMeGly(cPent)][NMeD]-Morpholide; lactam N-11),C (A compound having a KD ratio of 0.1 or more and less than 3 is denoted as C),C (A compound having a KD ratio of 0.1 or more and less than 3 is denoted as C)
CC[C@H](C)[C@@H]1NC(=O)[C@H](C)N(C)C(=O)C[C@@H](C(=O)N2CCOCC2)N(C)C(=O)[C@H](C2CCCC2)N(C)C(=O)C2(CCCC2)NC(=O)[C@@H]2CCCN2C(=O)[C@H](CCc2ccc(C(F)(F)F)c(Cl)c2)NC(=O)CN(C)C(=O)[C@H](Cc2ccc(C)cc2)N(CC)C(=O)CN(C)C(=O)CN(C)C1=O [PP0031] ([NMeA]I[Sar][Sar][NEtPhe(4-Me)][Sar][hPhe(3-Cl-4-CF3)]P[Ac5c][NMeGly(cPent)][NMeD]-Morpholide; lactam N-11),B (a compound having 3 or more and less than 10 is denoted as B),C (A compound having a KD ratio of 0.1 or more and less than 3 is denoted as C)
"CC[C@H](C)[C@@H]1NC(=O)[C@H](CC(F)(F)F)N(C)C(=O)C[C@@H](C(=O)N2CCOCC2)N(C)C(=O)[C@H](C2CCCC2)N(C)C(=O)C2(CCCC2)NC(=O)[C@@H]2CCCN2C(=O)[C@H](CCc2ccc(C(F)(F)F)c(Cl)c2)NC(=O)CN(C)C(=O)[C@H](Cc2ccc(C)cc2)N(CC)C(=O)CN(C)C(=O)CN(C)C1=O [PP0032] ([NMeAbu(4,4,4-F3)]I[Sar][Sar][NEtPhe(4-Me)][Sar][hPhe(3-Cl-4-CF3)]P[Ac5c][NMeGly(cPent)][NMeD]-Morpholide; lactam N-11)",C (A compound having a KD ratio of 0.1 or more and less than 3 is denoted as C),C (A compound having a KD ratio of 0.1 or more and less than 3 is denoted as C)
CC[C@H](C)[C@@H]1NC(=O)[C@H](CC(C)C)N(C)C(=O)C[C@@H](C(=O)N2CCOCC2)N(C)C(=O)[C@H](C2CCCC2)N(C)C(=O)C2(CCCC2)NC(=O)[C@@H]2CCCN2C(=O)[C@H](CCc2ccc(C(F)(F)F)c(Cl)c2)NC(=O)CN(C)C(=O)[C@H](Cc2ccc(C)cc2)N(C)C(=O)[C@H](CO)N(C)C(=O)CN(C)C1=O [PP0037] ([NMeL]I[Sar][NMeS][NMePhe(4-Me)][Sar][hPhe(3-Cl-4-CF3)]P[Ac5c][NMeGly(cPent)][NMeD]-Morpholide; lactam N-11),C (A compound having a KD ratio of 0.1 or more and less than 3 is denoted as C),C (A compound having a KD ratio of 0.1 or more and less than 3 is denoted as C)
